# How the values were obtained:
# Assay in all cases: in vitro susceptibility, MIC by mini broth dilution
# Type in all cases: cell-based
# [1] = test system: Staphylococcus aureus CVCC26003; details: strain CVCC26003
# Experimental: (§1) in vitro tests of susceptibility of the compounds according to the present disclosure against bacterial strains commonly used in laboratories. In accordance with the Performance Standards for Antimicrobial Disk Susceptibility Tests: Approved Standard published by the US National Committee for Clinical Laboratory Standards, the antibacterial activities of compounds prepared according to examples 5 to 187 were tested. The MICs (minimum inhibitory concentration) of the medicaments prepared according to the examples on the following bacterial strains were measured through mini broth dilution technique. Staphylococcus aureus CVCC26003, Streptococcus equines CVCC556. Actinobacillus pleuropneumoniae CVCC262, Haemophilus parasuis, and Pasteurella multocida CVCC399, which were purchased from the Control Institute of Veterinary Bioproducts and Pharmaceuticals, China. 4.1.1 Culture Medium for Staphylococcus aureus CVCC26003 Liquid culture medium: CAMHB. […] Solid culture medium: NINA prepared according to the specification of the final product. The strains were taken out of a refrigerator at −20° C. to be revived, and were spreaded by streaking on the solid culture medium with an inoculating loop. The inoculated culture medium was cultured at 35° C. in a constant temperature incubator for 20 h. […] were selected from a well-grown culture plate and streaked on the solid culture medium. The inoculated culture medium was cultured at 35° C. in the constant temperature incubator for 20 h. […] A 96-well plate was used, and 100 μl of DMSO was added into each of wells 2 to 11, and 200 μl of ready-prepared medicament solution was added into the 1st well, 100 μl of the medicament solution was extracted from the 1st well and added into the 2nd well. Double dilution was performed until the 11th well, thereby forming 11 gradients. In this case, compound of parent plate was prepared. 3 μl of double diluted medicament solution was extracted with a 12-channel pipettor and added into wells 1-11 of a new disposable 96-well culture plate. The 12th well thereof is a control well. For each medicament, there are two adjacent rows which are parallel. The transferred compound plate was reserved for later use. […] The dilution ratio was recorded, and the bacterial liquid for the tests was diluted according to the recorded dilution ratio. Subsequently, the bacterial suspension and the liquid culture medium were diluted in the proportion of 1:200. The diluted solution was reserved for later use.
# [2] = test system: Haemophilus parasuis
# Experimental: as §1, with “China. 4.1.2” for “China. 4.1.1”, “Culture Media” for “Culture Medium”, “for the Rest Four Bacterial Strains.” for “for Staphylococcus aureus CVCC26003”, “medium:” for “medium: CAMHB.”, “medium: […]” for “medium: NINA prepared according to the specification of the final product.”
# [3] = test system: Pasteurella multocida CVCC399; details: strain CVCC399
# Experimental: as §1, with “China. 4.1.2” for “China. 4.1.1”, “Culture Media” for “Culture Medium”, “for the Rest Four Bacterial Strains.” for “for Staphylococcus aureus CVCC26003”, “medium:” for “medium: CAMHB.”, “medium: […]” for “medium: NINA prepared according to the specification of the final product.”
# [4] = test system: Actinobacillus pleuropneumoniae CVCC262; details: strain CVCC262
# Experimental: as §1, with “China. 4.1.2” for “China. 4.1.1”, “Culture Media” for “Culture Medium”, “for the Rest Four Bacterial Strains.” for “for Staphylococcus aureus CVCC26003”, “medium:” for “medium: CAMHB.”, “medium: […]” for “medium: NINA prepared according to the specification of the final product.”
# [5] = test system: Streptococcus equines CVCC556; details: strain CVCC556
# Experimental: as §1, with “China. 4.1.2” for “China. 4.1.1”, “Culture Media” for “Culture Medium”, “for the Rest Four Bacterial Strains.” for “for Staphylococcus aureus CVCC26003”, “medium:” for “medium: CAMHB.”, “medium: […]” for “medium: NINA prepared according to the specification of the final product.”
Structure (SMILES),"MIC values, Staphylococcus aureus CVCC26003 [1]","MIC values, Haemophilus parasuis [2]","MIC values, Pasteurella multocida CVCC399 [3]","MIC values, Actinobacillus pleuropneumoniae CVCC262 [4]","MIC values, Streptococcus equines CVCC556 [5]"
"CC[C@H]1OC(=O)[C@H](C)[C@@H](O[C@H]2C[C@@](C)(OC)[C@](O)(CNCCCNCCc3ccc(S(C)(=O)=O)cc3)[C@H](C)O2)[C@H](C)[C@@H](O[C@@H]2O[C@H](C)C[C@H](N(C)C)[C@H]2O)[C@](C)(O)C[C@@H](C)NC[C@H](C)[C@@H](O)[C@]1(C)O [Syzx-61, (2R,3S,4R,5S,8R,10R,11R,12S,13S,14R)-13-[(2,6-dideoxy-3-C-methyl-3-O-methyl-4-C-[[(4-mesylphenylethylamino)propylamino]-methyl]-α-L-ribopyranosyl)oxy]-2-ethyl-3,4,10-trihydroxy-3,5,8,10,12,14-hexamethyl-11-[[3,4,6-trideoxy-3-(dimethylamino)-β-D-xylo-hexopyranosy]oxy]-1-oxa-7-azacyclopentadecan-15-one]",≦0.25 ug/mi,≦0.25 ug/mi,1 ug/mi,32 ug/mi,0.5 ug/mi
CCCN1C[C@H](C)[C@@H](O)[C@](C)(O)[C@@H](CC)OC(=O)[C@H](C)[C@@H](O[C@H]2C[C@@](C)(OC)[C@](O)(CNC(C)(C)C)[C@H](C)O2)[C@H](C)[C@@H](O[C@@H]2O[C@H](C)C[C@H](N(C)C)[C@H]2O)[C@](C)(O)C[C@H]1C [syzx-1 14],0.25 ug/mi,0.25 ug/mi,0.25 ug/mi,0.25 ug/mi,0.25 ug/mi
"CCC1OC(=O)C(C)C(OC2CC(C)(OC)C(O)(CNc3ccccc3)C(C)O2)C(C)C(OC2OC(C)CC(N(C)C)C2O)C(C)(O)CC(C)NCC(C)C(O)C1(C)O [syzx-4, (2R,3S,4R,5S,8R,10R,11R,12S,13S,14R)-13-[(2,6-dideoxy-3-C-methyl-3-O-methyl-4-C-[(phenylamino)methyl]-α-L-ribopyranosyl)oxy]-2-ethyl-3,4,10-trihydroxy-3,5,8,10,12,14-hexamethyl-11-[[3,4,6-trideoxy-3-(dimethylamino)-β-D-xylo-hexopyranosy]oxy]-1-oxa-7-azacyclopentadecan-15-one]",1 ug/mi,0.5 ug/mi,1 ug/mi,32 ug/mi,≦0.25 ug/mi
"CC[C@H]1OC(=O)[C@H](C)[C@@H](O[C@H]2C[C@@](C)(OC)[C@](O)(CNCc3ccc(OC)cc3)[C@H](C)O2)[C@H](C)[C@@H](O[C@@H]2O[C@H](C)C[C@H](N(C)C)[C@H]2O)[C@](C)(O)C[C@@H](C)NC[C@H](C)[C@@H](O)[C@]1(C)O [syzx-18, (2R,3S,4R,5S,8R,10R,11R,12S,13S,14R)-13-[(2,6-dideoxy-3-C-methyl-3-O-methyl-4-C-[(4-methoxybenzylamino)methyl]-α-L-ribopyranosyl)oxy]-2-ethyl-3,4,10-trihydroxy-3,5,8,10,12,14-hexamethyl-11-[[3,4,6-trideoxy-3-(dimethylamino)-β-D-xylo-hexopyranosy]oxy]-1-oxa-7-azacyclopentadecan-15-one]",0.5 ug/mi,0.5 ug/mi,2 ug/mi,16 ug/mi,–
